From ChEMBL document CHEMBL1134953, “Two selective novel triterpene glycosides from sea cucumber, Telenata Ananas: inhibitors of chemokine receptor-5” (Bioorg Med Chem Lett, 2002)

Target: C-C chemokine receptor type 5 (Homo sapiens, UniProt P51681)
Test: Inhibitory activity against human CCR5 chemokine receptor (CCR5) expressed in CHO cells
Format: cell-based

Sequence of C-C chemokine receptor type 5 (P51681 whole entry): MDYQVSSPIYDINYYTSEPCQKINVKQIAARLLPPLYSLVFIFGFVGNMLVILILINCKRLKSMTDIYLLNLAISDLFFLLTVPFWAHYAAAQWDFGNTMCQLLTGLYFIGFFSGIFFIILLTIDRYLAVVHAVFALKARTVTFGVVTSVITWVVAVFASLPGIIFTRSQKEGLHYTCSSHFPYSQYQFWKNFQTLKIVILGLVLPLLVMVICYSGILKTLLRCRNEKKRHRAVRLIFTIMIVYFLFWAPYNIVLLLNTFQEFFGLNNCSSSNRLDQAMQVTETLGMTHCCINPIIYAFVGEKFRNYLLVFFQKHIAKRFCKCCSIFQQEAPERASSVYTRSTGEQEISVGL

Row | SMILES | Ki
1 | C[C@H]1O[C@@H](O[C@H]2[C@H](O[C@H]3CC[C@]4(C)C5=C[C@H](O)C67C(=O)O[C@@](C)(C8CCC(C)(C)O8)[C@@]6(O)CC[C@@]7(C)C5CCC4C3(C)C)OC[C@@H](O[C@@H]3O[C@H](CO)[C@@H](O)[C@H](O)[C@H]3O)[C@@H]2O)[C@H](O)[C@@H](O)[C@@H]1O (some centres not stated) | 30 µM
2 | COC1[C@@H](O)C(OC2[C@@H](O)[C@H](O[C@H]3[C@H](O)[C@@H](O)[C@H](O[C@H]4[C@H](O[C@H]5CC[C@]6(C)C7=C[C@H](O)C89C(=O)O[C@@](C)(CCCC(C)C)C8CC[C@@]9(C)C7CCC6C5(C)C)OC[C@@H](O[C@@H]5O[C@H](CO)[C@@H](O)[C@H](OC6O[C@H](CO)[C@@H](O)[C@H](OC)[C@H]6O)[C@H]5O)[C@@H]4O)O[C@@H]3C)O[C@H](CO)[C@H]2O)O[C@H](CO)[C@H]1O (some centres not stated) | 5.1 µM
